Measured values published in PMC10534526 (Molecules, 2023).
Like-named read-outs stand apart in the source and are kept apart here.

Assays:
AGE formation = AGE formation inhibitory activity (glucose-mediated protein glycation of BSA, spectrofluorometric); assay type: biochemical; conditions: n = 3, 60°C, 24 h, read-out: AGE Inhibitory Activity (IC50, Mean ± SD)
Experimental: The compound PS10 with 4-methylpiperazine had better anti-glycating effects compared to the unsubstituted piperazine compound (PS6). […]
The synthesized compounds were assayed by the spectrofluorometric method for inhibition of glucose-mediated protein glycation. All the compounds and aminoguanidine (positive control) with different concentrations were evaluated in triplicate. […]
In vitro advanced glycation end-product (AGEs) formation inhibitory activity The assay for the ability of the synthesized compounds to inhibit the glucose-mediated protein glycation and the development of ﬂuorescent AGEs was performed. Different concentrations of various compounds were prepared by dissolving in DMSO. Anti-glycation assay was performed according to the methods reported by Matsuura and colleagues with slight modification. In all experiments, about 500 µl of Bovine serum albumin (1mg/ml final concentration) was incubated with 400 µl of glucose (500 mM) in the presence of 100 µl of test compounds, aminoguanidine or PBS as control buffer at different concentrations, The reaction was allowed to proceed at 60°C for 24hrs and thereafter reaction was stopped by adding 10 µl of 100% (w/v) trichloroacetic acid (TCA). Then the mixture was kept at 4°C for 10 min before subjected to centrifugation at 15,000 rpm. The precipitate was redissolved in 1ml alkaline PBS (pH10) and immediately quantified for relative amount of glycated BSA based on fluorescence intensity by spectrofluorometer LS-55 (Perkin Elmer) at 370 nm (excitation) and 440 nm (emission). Aminoguanidine was used as a positive control. Percentage inhibition was calculated. All experiments were performed in triplicate.

[1] = Free radical scavenging activity (DPPH, Blois method); conditions: n = 3, read-out: Radical Scavenging Activity (EC50, Mean ± SD)
Experimental: The activity was tested using the spectrophotometric Blois method.
Radical scavenging activity (DPPH Method)
The stable 1, 1-diphenyl-2-picryl hydrazyl radical (DPPH) was used for determination of free radical-scavenging activity of the test compounds. The 0.1 mM solution of DPPH in methanol (39.4 mg in 1000 ml) was freshly prepared. Different concentrations of test compounds were added with an equal volume to methanol solution of DPPH. After 30 min at room temperature, the absorbance was recorded at 517 nm. Ascorbic acid was used as standard. IC50 values denote the concentration of sample, which is required to scavenge 50% of DPPH free radicals. IC50 value was determined from the plotted graph of scavenging activity against the different concentrations of test compounds. Ascorbic acid was applied as positive drug (Blois, 1958).

[2] = molecular target: T1, brain AChE (rat cortex homogenate) (Rattus norvegicus, UniProt P37136); assay: biochemical
T1 construct: homogenate was used as the resource of AChE; from tissue; host or cells: rat cortex homogenate
T1 sequence (P37136 32-614): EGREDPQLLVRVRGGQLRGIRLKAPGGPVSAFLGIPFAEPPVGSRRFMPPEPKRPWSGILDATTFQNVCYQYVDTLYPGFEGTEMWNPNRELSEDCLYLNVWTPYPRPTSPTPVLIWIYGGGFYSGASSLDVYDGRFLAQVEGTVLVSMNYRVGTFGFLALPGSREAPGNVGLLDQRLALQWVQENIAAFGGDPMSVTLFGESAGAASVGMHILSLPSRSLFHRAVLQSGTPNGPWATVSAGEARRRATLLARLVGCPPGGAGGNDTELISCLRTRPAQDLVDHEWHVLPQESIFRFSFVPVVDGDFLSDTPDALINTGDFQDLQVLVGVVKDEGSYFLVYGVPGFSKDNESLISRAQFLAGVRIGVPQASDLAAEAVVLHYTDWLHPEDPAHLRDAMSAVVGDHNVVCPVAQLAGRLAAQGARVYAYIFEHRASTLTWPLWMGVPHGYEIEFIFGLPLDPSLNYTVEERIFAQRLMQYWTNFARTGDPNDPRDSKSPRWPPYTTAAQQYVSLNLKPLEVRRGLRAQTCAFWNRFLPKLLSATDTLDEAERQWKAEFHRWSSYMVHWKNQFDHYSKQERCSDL
Experimental: The ability of target compounds PS(1–10) to inhibit AChE was evaluated by the slightly modified Ellman’s method. The objective of attaching different amines to the 1,3-diphenylprop-2-enone skeleton via an ethoxy spacer was to enhance the interaction of the designed synthesized chalcones with both the PAS and CAS of AChE.
The inhibitory potential of synthesized compounds was evaluated for brain AChE by the widely used Ellman et al. process. The method involved using spectroscopic investigation at 450 nm. All the compounds with different concentrations were evaluated in triplicate including donepezil (standard AChE inhibitor).
In vitro inhibition of AChE
The inhibitory potency of target compounds on AChE was determined using spectroscopic […]
homogenate was used as the resource of AChE. For assay of AChE activity, a reaction mixture containing 100μl acetylthiocholine iodide 0.075M/L, 100μl sodium phosphate buffer (0.1M/L, pH 7.4), 20μl homogenate or serum and different concentrations of test compounds 20μl was incubated at 37° C for 15 min. The reaction was terminated by adding 50μl 3% sodium lauryl sulfate, then, 50μl, 0.2% of 5,5’–dithio-bis- (2-nitrobenzoic acid) (DTNB, 10 mg DTNB in 100 mL of Sorenson phosphate buffer, pH 8.0) was added to produce the yellow anion of 5-thio-2-nitro-benzoic acid. Assays were carried out with a blank containing all components except AChE in order to account for non-enzymatic reaction. The values of IC 50 were calculated by UV spectroscopy from the absorbance changes at 450 nm. A positive control of donepezil was used in the same range of concentrations. Each concentration was analyzed in triplicate. Data from concentration–inhibition experiments of the inhibitors were calculated by nonlinear regression analysis, using the GraphPad Prism 5 program. […]

[3] = system: STZ-induced cognitive impairment in rats; assay: Morris Water Maze in STZ-induced dementia; assay type: in vivo, Wistar rats; conditions: STZ i.c.v. 3 mg/kg rats; PS10 2, 5, 10 mg/kg p.o., day 9 to 22
Experimental: The STZ model (i.c.v., 3 mg/kg) is commonly used to study AD in animals. The intracerebroventricular injection of STZ, at two sub-diabetogenic doses, induces a range of symptoms including impaired cognition, metabolic and molecular changes, and neuropathological symptoms in rodents which are often found in AD subjects. […] The ROS produced can cause damage to the myelin sheath and acetyl coenzyme-A in the hippocampus. As a result, there is an increase in AChE activity, leading to behavioral disturbances, as in Alzheimer’s disease. Thus, this model is frequently used for AD interventions.
MWM is the most commonly used method to measure learning and spatial memory in rats. MWM utilizes the natural swimming ability of rats. As a result, during the retrieval phase, there is no induced stress that could affect the results. The MWM model is commonly used to test drugs that enhance memory and provide neuroprotection. Thus, it has been used to understand the effect of PS10 on the memory of animals with induced cognitive impairment by means of restoring the ELT.
To induce cognitive impairment in rats, solutions of Streptozotocin (STZ, 3 mg/kg) in artificial cerebro-spinal fluid (ACSF) were given as i.c.v. (intracerebroventricular) injections. The STZ injections were administered bilaterally on days 1 and 3 of the experimental protocol. […]

brain AChE = molecular target: T2, brain AChE (Rattus norvegicus, UniProt P37136); assay: Brain AChE activity in STZ-treated rats (brain homogenate); assay type: in vivo; conditions: STZ i.c.v. rats; PS10 2, 5, 10 mg/kg p.o.
T2 construct: from tissue; host or cells: brain homogenate of STZ-treated Wistar rats
T2 sequence (P37136 32-614): T1 sequence (P37136 32-614)
From the text: The central cholinergic system is critical for cognitive function, and AD patients often suffer from cholinergic hypofunction due to increased AChE activity and the degeneration of cholinergic neurons. Animal studies have shown that the administration of STZ (i.c.v) increases brain AChE activity, which leads to cognitive impairment and memory deficits. […]. Possibly, due to these interactions between PS10 and amino acids of AChE, PS10 was able to inhibit AChE activity.
(§1) Groups IV, V, and VI (STZ + PS10): Following intracerebroventricular injections of STZ, animal groups were administered different doses of PS10 (2, 5, and 10 mg/kg, p.o., respectively), from 9 to 22 days.
(§2) After the behavioral experiment was completed, the rats were euthanized under mild anesthesia using cervical dislocation, and their brains were extracted. The homogenates were made in a buffer (pH 7.4) for further analysis. AChE activity, total protein levels, reduced GSH levels, and thiobarbituric acid reactive species (TBARS) levels were measured using the brain homogenates.

[4] = system: brain GSH and TBARS levels; assay: Brain oxidative stress markers (GSH, TBARS) in STZ-treated rats; assay type: in vivo, Wistar rats; conditions: STZ i.c.v. rats; PS10 2, 5, 10 mg/kg p.o.
From the text: Another crucial factor that contributes to the progression of AD is oxidative stress. The brain is more vulnerable to oxidative damage compared to other organs due to its high energy demand, relatively lower level of antioxidant defense mechanisms, and high concentration of polyunsaturated fatty acids. STZ injection generates free radicals that overwhelm the brain’s defensive antioxidant system (GSH) and cause lipid membrane oxidation, leading to the production of malondialdehyde. Thus, in order to analyze the antioxidant property of PS10, the levels of TBARS and GSH were measured in the current investigation (Figure 6).
as §1, §2

[5] = n = 3, rat cortex homogenate, read-out: AChE Inhibitory Activity (IC50, Mean ± SD)

Row | SMILES | IC50 (AGE formation) | EC50 [1] | IC50 [2, 5] | further results
1 | N=C(N)NN [Aminoguanidine (AG), Aminoguanidine, reference compound] | 44300 ± 120 nM |  |  | 
2 | O=C(C=Cc1ccc(OCCn2ccnc2)cc1)c1ccccc1 [PS9, 3-(4-(2-(1H-Imidazol-1-yl)ethoxy)phenyl)-1-phenylprop-2-en-1-one] | 65700 ± 170 nM | 48.58 ± 0.42 nM | 26.3 ± 0.3 nM | 
3 | CN(C)CCOc1ccc(C=CC(=O)c2ccccc2)cc1 [PS2, 3-(4-(2-(Dimethylamino)ethoxy)phenyl)-1-phenylprop-2-en-1-one] | 68600 ± 230 nM | 49.85 ± 0.11 nM | 52.51 ± 0.2 nM | 
4 | CN(CCOc1ccc(C=CC(=O)c2ccccc2)cc1)Cc1ccccc1 [PS4, 3-(4-(2-(Benzyl(methyl)amino)ethoxy)phenyl)-1-phenylprop-2-en-1-one] | 69390 ± 200 nM | 49.48 ± 0.21 nM | 48.8 ± 0.04 nM | 
5 | CN1CCN(CCOc2ccc(C=CC(=O)c3ccccc3)cc2)CC1 [PS10, 3-(4-(2-(p-Methylpiperazin-1-yl)ethoxy)phenyl)-1-phenylprop-2-en-1-one] | 49850 ± 130 nM | 22.83 ± 0.2 nM | 15.3 ± 0.72 nM | ELT (escape latency time) in MWM [3]: significantly decreased STZ-induced cognitive impairment; TSTQ (time spent in target quadrant) in MWM [3]: significantly decreased STZ-induced cognitive impairment; brain AChE activity (brain AChE): restored; brain GSH level [4]: reversed; brain TBARS levels [4]: reversed
6 | O=C(C=Cc1ccc(O)cc1)c1ccccc1 [PS1, 3-(4-Hydroxyphenyl)-1-phenylprop-2-en-1-one] | 43600 ± 80 nM | 22.4 ± 0.4 nM |  | IC50 [2]: 36.5 ± 0.42 nM
7 | O=C1O[C@H]([C@@H](O)CO)C(O)=C1O [Ascorbic acid, reference compound] |  | 21.7 ± 0.08 nM |  | 
8 | O=C(C=Cc1ccc(OCCN2CCOCC2)cc1)c1ccccc1 [PS7, 3-(4-(2-Morpholinoethoxy)phenyl)-1-phenylprop-2-en-1-one] | 51200 ± 800 nM | 37.65 ± 0.24 nM | 22.72 ± 0.13 nM | 
9 | CCN(CC)CCOc1ccc(C=CC(=O)c2ccccc2)cc1 [PS3, 3-(4-(2-(Diethylamino)ethoxy)phenyl)-1-phenylprop-2-en-1-one] | 67300 ± 330 nM | 49.41 ± 0.22 nM | 47.5 ± 0.21 nM | 
10 | O=C(C=Cc1ccc(OCCN2CCNCC2)cc1)c1ccccc1 [PS6, 1-Phenyl-3-(4-(2-(piperazin-1-yl)ethoxy)phenyl)prop-2-en-1-one] | 64510 ± 200 nM | 46.7 ± 0.24 nM | 21.4 ± 0.8 nM | 
11 | O=C(C=Cc1ccc(OCCN2CCCC2)cc1)c1ccccc1 [PS8, 1-Phenyl-3-(4-(2-(pyrrolidin-1-yl)ethoxy)phenyl)prop-2-en-1-one] | 65410 ± 360 nM | 48.64 ± 0.18 nM | 32.72 ± 0.12 nM | 
12 | O=C(C=Cc1ccc(OCCN2CCCCC2)cc1)c1ccccc1 [PS5, 1-Phenyl-3-(4-(2-(piperidin-1-yl)ethoxy)phenyl)prop-2-en-1-one] | 55300 ± 200 nM | 34.4 ± 0.4 nM | 19.7 ± 0.3 nM | 
